In ChEMBL document CHEMBL1781873, “Synthesis and antibacterial property of pyrrolopyrano quinolinones and pyrroloquinolines” (2011):
Activity calls are given as the source filed them. No cut-off for these calls is given here.

How the values were obtained:
[1] = system: Klebsiella pneumoniae; experiment: Antibacterial activity against Klebsiella pneumoniae after 18 to 20 hrs by broth micro dilution assay; assay type: functional
[2] = system: Klebsiella pneumoniae; experiment: Antibacterial activity against Klebsiella pneumoniae at 25 ug after 24 hrs by disc diffusion assay; assay type: functional; settings: read-out: IZ
[3] = system: Staphylococcus aureus; experiment: Antibacterial activity against Staphylococcus aureus at 15 ug after 24 hrs by disc diffusion assay; assay type: functional; settings: read-out: IZ
[4] = system: Bacillus subtilis; experiment: Antibacterial activity against Bacillus subtilis at 10 ug after 24 hrs by disc diffusion assay; assay type: functional; settings: read-out: IZ
[5] = system: Pseudomonas aeruginosa; experiment: Antibacterial activity against Pseudomonas aeruginosa at 25 ug after 24 hrs by disc diffusion assay; assay type: functional; settings: read-out: IZ
[6] = system: Bacillus subtilis; experiment: Antibacterial activity against Bacillus subtilis at 25 ug after 24 hrs by disc diffusion assay; assay type: functional; settings: read-out: IZ
[7] = system: Escherichia coli; experiment: Inhibition of DNA gyrase mRNA expression in Escherichia coli measured up to 24 hrs by RT-PCR; assay type: functional, organism-based
[8] = system: Pseudomonas aeruginosa; experiment: Antibacterial activity against Pseudomonas aeruginosa at 20 ug after 24 hrs by disc diffusion assay; assay type: functional; settings: read-out: IZ
[9] = system: Staphylococcus aureus; experiment: Antibacterial activity against Staphylococcus aureus at 5 ug after 24 hrs by disc diffusion assay; assay type: functional; settings: read-out: IZ
[10] = system: Salmonella typhi; experiment: Antibacterial activity against Salmonella typhi at 20 ug after 24 hrs by disc diffusion assay; assay type: functional, Salmonella enterica subsp. enterica serovar Typhi; settings: Salmonella enterica, read-out: IZ
[11] = system: Bacillus subtilis; experiment: Antibacterial activity against Bacillus subtilis at 20 ug after 24 hrs by disc diffusion assay; assay type: functional; settings: read-out: IZ
[12] = system: Salmonella typhi; experiment: Antibacterial activity against Salmonella typhi at 10 ug after 24 hrs by disc diffusion assay; assay type: functional, Salmonella enterica subsp. enterica serovar Typhi; settings: Salmonella enterica, read-out: IZ
[13] = system: Bacillus subtilis; experiment: Antibacterial activity against Bacillus subtilis after 18 to 20 hrs by broth micro dilution assay; assay type: functional
[14] = system: Bacillus subtilis; experiment: Antibacterial activity against Bacillus subtilis at 15 ug after 24 hrs by disc diffusion assay; assay type: functional; settings: read-out: IZ
[15] = system: Salmonella typhi; experiment: Antibacterial activity against Salmonella typhi at 25 ug after 24 hrs by disc diffusion assay; assay type: functional, Salmonella enterica subsp. enterica serovar Typhi; settings: Salmonella enterica, read-out: IZ
[16] = system: Pseudomonas aeruginosa; experiment: Antibacterial activity against Pseudomonas aeruginosa at 15 ug after 24 hrs by disc diffusion assay; assay type: functional; settings: read-out: IZ
[17] = system: Escherichia coli; experiment: Antibacterial activity against Escherichia coli at 15 ug after 24 hrs by disc diffusion assay; assay type: functional; settings: read-out: IZ
[18] = system: Klebsiella pneumoniae; experiment: Antibacterial activity against Klebsiella pneumoniae at 15 ug after 24 hrs by disc diffusion assay; assay type: functional; settings: read-out: IZ
[19] = system: Salmonella typhi; experiment: Antibacterial activity against Salmonella typhi at 15 ug after 24 hrs by disc diffusion assay; assay type: functional, Salmonella enterica subsp. enterica serovar Typhi; settings: Salmonella enterica, read-out: IZ
[20] = system: Escherichia coli; experiment: Antibacterial activity against Escherichia coli at 5 ug after 24 hrs by disc diffusion assay; assay type: functional; settings: read-out: IZ
[21] = system: Staphylococcus aureus; experiment: Antibacterial activity against Staphylococcus aureus after 18 to 20 hrs by broth micro dilution assay; assay type: functional
[22] = system: Pseudomonas aeruginosa; experiment: Antibacterial activity against Pseudomonas aeruginosa after 18 to 20 hrs by broth micro dilution assay; assay type: functional
[23] = system: Salmonella typhi; experiment: Antibacterial activity against Salmonella typhi after 18 to 20 hrs by broth micro dilution assay; assay type: functional, Salmonella enterica subsp. enterica serovar Typhi; settings: Salmonella enterica
[24] = system: Klebsiella pneumoniae; experiment: Antibacterial activity against Klebsiella pneumoniae at 10 ug after 24 hrs by disc diffusion assay; assay type: functional; settings: read-out: IZ
[25] = system: Staphylococcus aureus; experiment: Antibacterial activity against Staphylococcus aureus at 10 ug after 24 hrs by disc diffusion assay; assay type: functional; settings: read-out: IZ
[26] = system: Klebsiella pneumoniae; experiment: Antibacterial activity against Klebsiella pneumoniae at 20 ug after 24 hrs by disc diffusion assay; assay type: functional; settings: read-out: IZ
[27] = system: Escherichia coli; experiment: Inhibition of Escherichia coli DNA gyrase assessed as inhibition of DNA supercoiling activity using pBR322 DNA as substrate at […] after 3 hrs by agarose gel electrophoresis
[28] = system: Klebsiella pneumoniae; experiment: Antibacterial activity against Klebsiella pneumoniae at 5 ug after 24 hrs by disc diffusion assay; assay type: functional; settings: read-out: IZ
[29] = system: Pseudomonas aeruginosa; experiment: Antibacterial activity against Pseudomonas aeruginosa at 5 ug after 24 hrs by disc diffusion assay; assay type: functional; settings: read-out: IZ
[30] = system: Pseudomonas aeruginosa; experiment: Antibacterial activity against Pseudomonas aeruginosa at 10 ug after 24 hrs by disc diffusion assay; assay type: functional; settings: read-out: IZ
[31] = system: Salmonella typhi; experiment: Antibacterial activity against Salmonella typhi at 5 ug after 24 hrs by disc diffusion assay; assay type: functional, Salmonella enterica subsp. enterica serovar Typhi; settings: Salmonella enterica, read-out: IZ
[32] = system: Escherichia coli; experiment: Inhibition of Escherichia coli DNA gyrase -mediated DNA relaxation using pBR322 DNA as substrate at […] after 1 hrs by agarose gel electrophoresis
[33] = system: Escherichia coli; experiment: Antibacterial activity against Escherichia coli at 20 ug after 24 hrs by disc diffusion assay; assay type: functional; settings: read-out: IZ
[34] = system: Escherichia coli; experiment: Antibacterial activity against Escherichia coli at 10 ug after 24 hrs by disc diffusion assay; assay type: functional; settings: read-out: IZ
[35] = system: Staphylococcus aureus; experiment: Antibacterial activity against Staphylococcus aureus at 20 ug after 24 hrs by disc diffusion assay; assay type: functional; settings: read-out: IZ
[36] = system: Escherichia coli; experiment: Antibacterial activity against Escherichia coli after 18 to 20 hrs by broth micro dilution assay; assay type: functional
[37] = system: Escherichia coli; experiment: Antibacterial activity against Escherichia coli at 25 ug after 24 hrs by disc diffusion assay; assay type: functional; settings: read-out: IZ
[38] = system: Staphylococcus aureus; experiment: Antibacterial activity against Staphylococcus aureus at 25 ug after 24 hrs by disc diffusion assay; assay type: functional; settings: read-out: IZ

CCC1[C@@H]2c3c(c4ccccc4n(C)c3=O)OC(C)(C)[C@H]2CN1OS(=O)(=O)c1ccc(C)cc1 (mixture of isomers)
MIC50 [1]: 0.5 µg/mL | MIC90 [1]: 0.5 µg/mL | zone of inhibition at 25 µg/disc [2]: 36 mm | zone of inhibition at 15 µg/disc [3]: 13 mm | zone of inhibition at 10 µg/disc [4]: 7 mm | zone of inhibition at 25 µg/disc [5]: 24 mm | zone of inhibition at 25 µg/disc [6]: 12 mm | inhibition of gyrase mRNA expression (active/not active) [7]: Active | zone of inhibition at 20 µg/disc [8]: 22 mm | zone of inhibition at 5 µg/disc [9]: 9 mm | zone of inhibition at 20 µg/disc [10]: 20 mm | zone of inhibition at 20 µg/disc [11]: 10 mm | zone of inhibition at 10 µg/disc [12]: 16 mm | MIC50 [13]: 0.5 µg/mL | MIC90 [13]: 0.5 µg/mL | zone of inhibition at 15 µg/disc [14]: 9 mm | zone of inhibition at 25 µg/disc [15]: 22 mm | zone of inhibition at 15 µg/disc [16]: 17 mm | zone of inhibition at 15 µg/disc [17]: 18 mm | zone of inhibition at 15 µg/disc [18]: 30 mm | zone of inhibition at 15 µg/disc [19]: 18 mm | zone of inhibition at 5 µg/disc [20]: 10 mm | MIC50 [21]: 0.5 µg/mL | MIC90 [21]: 0.5 µg/mL | MIC50 [22]: 0.5 µg/mL | MIC90 [22]: 0.5 µg/mL | MIC50 [23]: 0.5 µg/mL | MIC90 [23]: 0.5 µg/mL | zone of inhibition at 10 µg/disc [24]: 26 mm | zone of inhibition at 10 µg/disc [25]: 12 mm | zone of inhibition at 20 µg/disc [26]: 34 mm | DNA gyrase inhibition (active/inactive) [27]: Active | zone of inhibition at 5 µg/disc [28]: 20 mm | zone of inhibition at 5 µg/disc [29]: 10 mm | zone of inhibition at 10 µg/disc [30]: 16 mm | zone of inhibition at 5 µg/disc [31]: 10 mm | inhibition [32]: Active | zone of inhibition at 20 µg/disc [33]: 20 mm | zone of inhibition at 10 µg/disc [34]: 16 mm | zone of inhibition at 20 µg/disc [35]: 14 mm | MIC50 [36]: 0.5 µg/mL | MIC90 [36]: 1 µg/mL | zone of inhibition at 25 µg/disc [37]: 23 mm | zone of inhibition at 25 µg/disc [38]: 17 mm

CCC1[C@@H]2c3c(c4ccccc4n(C)c3=O)OC(c3ccccc3)[C@H]2CN1OS(=O)(=O)c1ccc(C)cc1 (mixture of isomers)
MIC50 [1]: 128 µg/mL | MIC90 [1]: 128 µg/mL | zone of inhibition at 25 µg/disc [2]: 36 mm | zone of inhibition at 15 µg/disc [3]: 13 mm | zone of inhibition at 10 µg/disc [4]: 7 mm | zone of inhibition at 25 µg/disc [5]: 24 mm | zone of inhibition at 25 µg/disc [6]: 12 mm | inhibition of gyrase mRNA expression (active/not active) [7]: Active | zone of inhibition at 20 µg/disc [8]: 22 mm | zone of inhibition at 5 µg/disc [9]: 9 mm | zone of inhibition at 20 µg/disc [10]: 20 mm | zone of inhibition at 20 µg/disc [11]: 10 mm | zone of inhibition at 10 µg/disc [12]: 16 mm | MIC50 [13]: 128 µg/mL | MIC90 [13]: 128 µg/mL | zone of inhibition at 15 µg/disc [14]: 9 mm | zone of inhibition at 25 µg/disc [15]: 22 mm | zone of inhibition at 15 µg/disc [16]: 17 mm | zone of inhibition at 15 µg/disc [17]: 18 mm | zone of inhibition at 15 µg/disc [18]: 30 mm | zone of inhibition at 15 µg/disc [19]: 18 mm | zone of inhibition at 5 µg/disc [20]: 10 mm | MIC50 [21]: 128 µg/mL | MIC90 [21]: 128 µg/mL | MIC50 [22]: 128 µg/mL | MIC90 [22]: 128 µg/mL | MIC50 [23]: 128 µg/mL | MIC90 [23]: 128 µg/mL | zone of inhibition at 10 µg/disc [24]: 26 mm | zone of inhibition at 10 µg/disc [25]: 12 mm | zone of inhibition at 20 µg/disc [26]: 34 mm | DNA gyrase inhibition (active/inactive) [27]: Active | zone of inhibition at 5 µg/disc [28]: 20 mm | zone of inhibition at 5 µg/disc [29]: 10 mm | zone of inhibition at 10 µg/disc [30]: 16 mm | zone of inhibition at 5 µg/disc [31]: 10 mm | inhibition [32]: Active | zone of inhibition at 20 µg/disc [33]: 20 mm | zone of inhibition at 10 µg/disc [34]: 16 mm | zone of inhibition at 20 µg/disc [35]: 14 mm | MIC50 [36]: 128 µg/mL | MIC90 [36]: 128 µg/mL | zone of inhibition at 25 µg/disc [37]: 23 mm | zone of inhibition at 25 µg/disc [38]: 17 mm
